# Data: article PMC8041284, “Tunable Methacrylamides for Covalent Ligand Directed Release Chemistry” (Journal of the American Chemical Society, 2021)
# Target: BTK (Homo sapiens, UniProt Q06187)
# Assay: biochemical
# Settings: read-out: BTK inhibition (%)
# BTK, sequence (Q06187 402-655 limits assumed): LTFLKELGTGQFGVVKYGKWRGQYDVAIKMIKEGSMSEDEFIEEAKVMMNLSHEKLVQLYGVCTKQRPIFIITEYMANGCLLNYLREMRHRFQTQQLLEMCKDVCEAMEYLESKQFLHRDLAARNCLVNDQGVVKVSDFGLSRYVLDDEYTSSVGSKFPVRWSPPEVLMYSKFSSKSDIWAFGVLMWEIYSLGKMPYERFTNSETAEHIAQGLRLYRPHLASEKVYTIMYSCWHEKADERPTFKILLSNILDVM
row,SMILES,inhibition at 10 µM [%]
1,COC1=C[C@]23CCCN2CCc2cc4c(cc2[C@@H]3[C@@H]1O)OCO4 [PCM-0214978],0
2,C[C@H]1CC(=O)C[C@@H]2CC[C@H]3[C@@H]4CC[C@H](O)[C@@]4(C)CC[C@@H]3[C@]21C [PCM-0214988],-20.2
3,O=c1ccc2ccc3occc3c2o1 [PCM-0214995],-19.3
4,C[C@@H]1C(=O)O[C@H]2[C@H](O)[C@]34[C@@H]5OC(=O)[C@]3(O[C@@H]3OC(=O)[C@H](O)[C@@]34[C@H](C(C)(C)C)[C@H]5O)[C@@]12O [PCM-0215011],5.4

# Same assay, conditions: read-out: BTK inhibition (%), 0.75 uM BTK, […] probe 3l, 15 min preincubation
row,SMILES,inhibition at 10 µM [%]
1,C[C@@H]1O[C@H]2O[C@H]3[C@@H](OC[C@H](O)[C@@H]3O)OC(=O)[C@]34CCC(C)(C)C[C@H]3C3=CC[C@H]5[C@@]6(C)C[C@H](O)[C@H](O[C@@H]7O[C@H](CO)[C@@H](O)[C@H](O)[C@H]7O[C@@H]7OC[C@H](OC(=O)C[C@](C)(O)CC(=O)O[C@@H]1[C@@H](O[C@@H]1OC[C@@H](O)[C@H](O)[C@H]1O)[C@H]2O)[C@H](O)[C@H]7O)[C@@](C)(CO)[C@@H]6CC[C@@]5(C)[C@]3(C)CC4 [PCM-0214951],6.2
2,C[C@H](CC[C@@H](O[C@@H]1O[C@H](CO[C@@H]2O[C@H](CO)[C@@H](O)[C@H](O)[C@H]2O)[C@@H](O)[C@H](O)[C@H]1O[C@@H]1O[C@H](CO)[C@@H](O)[C@H](O)[C@H]1O)C(C)(C)O)[C@H]1CC[C@@]2(C)[C@@H]3CC=C4[C@@H](CC[C@H](O[C@@H]5O[C@H](CO[C@@H]6O[C@H](CO)[C@@H](O)[C@H](O)[C@H]6O)[C@@H](O)[C@H](O)[C@H]5O)C4(C)C)[C@]3(C)[C@H](O)C[C@]12C [PCM-0214952],-2.3
3,C/C=C(/C)C(=O)O[C@H]1Cc2cc3ccc(=O)oc3cc2OC1(C)C [PCM-0214953],0.8
4,CN1C2=C3N=c4ccccc4=C3CCN2C(=O)c2ccccc21 [PCM-0214954],7
5,COc1cc2c(=O)c(-c3ccc(O)cc3)coc2cc1O[C@@H]1O[C@H](CO)[C@@H](O)[C@H](O)[C@H]1O [PCM-0214955],15.6
6,OCCc1ccc(O)c(O)c1 [PCM-0214956],-2.3
7,O=C(O)/C=C/CCCCCCCO [PCM-0214957],3.4
8,Cc1cc(O)cc(O[C@@H]2O[C@H](CO)[C@@H](O)[C@H](O)[C@H]2O)c1 [PCM-0214958],-10.1
9,C=C1C(=O)O[C@@H]2C[C@@]3(C)CCCC(=C)[C@@H]3C[C@H]12 [PCM-0214959],15.9
10,CC1=C(/C=C/C(C)=C/C=C/C(C)=C/C=C/C=C(C)/C=C/C=C(C)/C=C/C2=C(C)C(=O)[C@@H](O)CC2(C)C)C(C)(C)C[C@H](O)C1=O [PCM-0214960],16.6
11,CCCCC[C@H](O)CC(=O)CCc1ccc(O)c(OC)c1 [PCM-0214961],1.6
12,COc1ccc(-c2oc3c(CC=C(C)C)c(O)cc(O)c3c(=O)c2O[C@@H]2O[C@@H](C)[C@H](O)[C@@H](O)[C@H]2O)cc1 [PCM-0214963],6.2
13,COc1cc(/C=C/C(=O)O[C@H]2CC[C@]34C[C@]35CC[C@]3(C)[C@@H]([C@H](C)CCC=C(C)C)CC[C@@]3(C)[C@@H]5CC[C@H]4C2(C)C)ccc1O [PCM-0214964],16.3
14,CC1(C)CCCC2(C)OC(=O)C=C12 (stereo not shown) [PCM-0214965],8.6
15,C[N+]1(C)CCC[C@H]1C(=O)[O-] [PCM-0214966],7.8
16,C[C@@H]1O[C@@H](O[C@H]2[C@H](O[C@H]3CC[C@@]4(C)[C@@H](CC[C@]5(C)[C@@H]4CC=C4[C@@H]6CC(C)(C)CC[C@]6(C(=O)O)CC[C@]45C)[C@]3(C)CO)OC[C@H](O)[C@@H]2O)[C@H](O)[C@H](O)[C@H]1O [PCM-0214969],-10.9
17,O=c1c2cc(O[C@@H]3O[C@H](CO)[C@@H](O)[C@H](O)[C@H]3O)c(O)cc2oc2cc(O)c([C@@H]3O[C@H](CO)[C@@H](O)[C@H](O)[C@H]3O)c(O)c12 [PCM-0214972],-3.1
18,CC1(C)OC(=O)C=C[C@]2(C)[C@H]3CC[C@@]4(C)[C@H](c5ccoc5)OC(=O)[C@H]5O[C@]54[C@]3(C)C(=O)C[C@@H]12 [PCM-0214973],11.7
19,CC1(C)C=Cc2c(ccc3c2OC[C@@H](c2ccc(O)cc2O)C3)O1 [PCM-0214974],70.3
20,COc1cc(C[C@@H](COC2OC(CO)C(O)C(O)C2O)[C@@H](COC2OC(CO)C(O)C(O)C2O)Cc2ccc(O)c(OC)c2)ccc1O (stereo partly shown) [PCM-0214976],2.3
21,O=C1C[C@@H](c2ccc(O)cc2)Oc2cc(O)ccc21 [PCM-0214979],-9.3
22,O=C1C[C@@H](c2ccc(O[C@@H]3O[C@H](CO)[C@@H](O)[C@H](O)[C@H]3O)cc2)Oc2cc(O)ccc21 [PCM-0214980],10.9
23,CC(=O)O[C@@]12CO[C@@H]1C[C@H](O)[C@@]1(C)C(=O)[C@H](O)C3=C(C)[C@@H](OC(=O)[C@H](O)[C@@H](NC(=O)c4ccccc4)c4ccccc4)C[C@@](O)([C@@H](OC(=O)c4ccccc4)[C@H]21)C3(C)C [PCM-0214981],9.3
24,O=C(O)c1ccc(O)cc1 [PCM-0214982],-10.9
25,O=c1[nH]cnc2c1ncn2[C@H]1C[C@H](O)[C@@H](CO)O1 [PCM-0214983],0
26,CC1(C)CC[C@]2(C(=O)O)[C@H](O)C[C@]3(C)C(=CC[C@@H]4[C@@]5(C)CC[C@H](O)C(C)(C)[C@@H]5CC[C@]43C)[C@@H]2C1 [PCM-0214984],24.8

row,SMILES,inhibition at 10 µM [%]
1,COc1ccc(-c2cc(=O)c3c(O)c(OC)c(O)cc3o2)cc1OC [PCM-0214985],72.4
2,CC(=O)OCCc1ccc(O)c(O)c1 [PCM-0214986],-9.7
3,O=C(O)CCc1ccc(O)cc1O [PCM-0214987],-10.9
4,CC(C)=CCC[C@](C)(O[C@@H]1O[C@H](CO)[C@@H](O)[C@H](O)[C@H]1O)[C@H]1CC[C@]2(C)[C@@H]1[C@H](O)C[C@@H]1[C@@]3(C)CC[C@H](O)C(C)(C)[C@@H]3[C@@H](O[C@@H]3O[C@H](CO)[C@@H](O)[C@H](O)[C@H]3O[C@@H]3O[C@@H](C)[C@H](O)[C@@H](O)[C@H]3O)C[C@]12C [PCM-0214989],-8.6
5,Oc1cccc(O)c1O [PCM-0214990],-12.4
6,CCO[C@H]1O[C@@H]2O[C@@]3(C)CC[C@H]4[C@H](C)CC[C@@H]([C@H]1C)[C@@]24OO3 [PCM-0214993],-16.3
7,COC(=O)/C=C/c1ccc(O)cc1 [PCM-0214996],0
8,CC1=C[C@@]2(O)O[C@@]3(CC2=C(C)C)[C@@H](C)CC[C@@H]13 [PCM-0214997],20.7
9,COc1cc(O)cc2c1C(=O)C[C@@H](c1ccccc1)O2 [PCM-0214998],-12.5
10,COc1ccc(-c2cc(=O)c3c(O)c(OC)c(O)c(OC)c3o2)cc1 [PCM-0214999],80.7
11,C/C=C(/C)C(=O)O [PCM-0215002],14.5
12,C=C1CC[C@@H]2[C@](C)(CO)[C@H](O)CC[C@@]2(C)[C@H]1C/C=C1\C=COC1=O [PCM-0215003],14
13,O=c1c2cc(O)c(O)cc2oc2cc(O)c([C@@H]3O[C@H](CO)[C@@H](O)[C@H](O)[C@H]3O)c(O)c12 [PCM-0215004],-14.8
14,CC1(C)CCC[C@](C)([C@H]2CC[C@]3(C)[C@@H]2[C@H](O)C[C@@H]2[C@@]4(C)CC[C@H](O)C(C)(C)[C@@H]4[C@H](O)C[C@]23C)O1 [PCM-0215005],-2.8
15,C[C@@H]1CC[C@@]2(OC1)O[C@H]1C[C@H]3[C@@H]4CC=C5C[C@@H](O[C@@H]6O[C@H](CO)[C@@H](O)[C@H](O[C@@H]7O[C@H](CO)[C@@H](O)[C@H](O)[C@H]7O)[C@H]6O[C@@H]6O[C@@H](C)[C@H](O)[C@@H](O)[C@H]6O)CC[C@]5(C)[C@H]4CC[C@]3(C)[C@H]1[C@@H]2C [PCM-0215006],-3.1
16,C[C@@H]1O[C@@H](O[C@H]2[C@H](O[C@H]3CC[C@@]4(C)[C@@H](CC[C@]5(C)[C@@H]4CC=C4[C@@H]6CC(C)(C)CC[C@]6(C(=O)O[C@@H]6O[C@H](CO[C@@H]7O[C@H](CO)[C@@H](O)[C@H](O)[C@H]7O)[C@@H](O)[C@H](O)[C@H]6O)CC[C@]45C)[C@]3(C)CO)OC[C@H](O)[C@@H]2O)[C@H](O)[C@H](O[C@@H]2O[C@H](CO)[C@@H](O[C@@H]3O[C@H](CO)[C@@H](O)[C@H](O)[C@H]3O)[C@H](O)[C@H]2O)[C@H]1O [PCM-0215007],-12.5
17,C[C@@H]1O[C@@H](O[C@H]2[C@H](O[C@H]3CC[C@@]4(C)[C@@H](CC[C@]5(C)[C@@H]4CC=C4[C@@H]6CC(C)(C)CC[C@]6(C(=O)O[C@@H]6O[C@H](CO[C@@H]7O[C@H](CO)[C@@H](O[C@@H]8O[C@@H](C)[C@H](O)[C@@H](O)[C@H]8O)[C@H](O)[C@H]7O)[C@@H](O)[C@H](O)[C@H]6O)CC[C@]45C)[C@]3(C)CO)OC[C@H](O)[C@@H]2O)[C@H](O)[C@H](O)[C@H]1O [PCM-0215008],-10.1
18,CC(C)(O)[C@@H]1CC[C@](C)([C@H]2[C@@H](O)C[C@@]3(C)[C@@H]4C[C@H](O[C@@H]5O[C@H](CO)[C@@H](O)[C@H](O)[C@H]5O)[C@H]5C(C)(C)[C@@H](O[C@@H]6OC[C@@H](O)[C@H](O)[C@H]6O)CC[C@@]56C[C@@]46CC[C@]23C)O1 [PCM-0215009],12.5
19,C[C@H]1CC[C@@]2(O)C(C)(C)[C@@H]3CC[C@@]2(C)[C@H]1C3 [PCM-0215010],2.8
20,C/C=C(\C)C(=O)O [PCM-0215012],15.6
21,COC(=O)c1cc(O)c(O)c(O)c1 [PCM-0215013],17.9
22,O=C(O)CCc1ccc(O)cc1 [PCM-0215016],-17.9
23,C=C1C[C@@]23CC[C@H]4[C@@](C)(CCC[C@@]4(C)C(=O)O[C@@H]4O[C@H](CO)[C@@H](O)[C@H](O)[C@H]4O)[C@@H]2CC[C@]1(O[C@@H]1O[C@H](CO)[C@@H](O)[C@H](O[C@@H]2O[C@H](CO)[C@@H](O)[C@H](O)[C@H]2O)[C@H]1O[C@@H]1O[C@H](CO)[C@@H](O)[C@H](O)[C@H]1O)C3 [PCM-0215017],0.8
24,O=Cc1ccc(O[C@@H]2O[C@H](CO)[C@@H](O)[C@@H](O)[C@H]2O)cc1 [PCM-0215018],7
25,O=C(O)c1cc(O)ccc1O [PCM-0215019],-21.4
